US4937390A, “Compound useful for the production of 3-deoxy-3-fluoro-myo-inositol” (University of Pittsburgh, priority 1989, dated 1990)
pKi: −log10 of the molar value.

Experiments:
myo-inositol transporter = target: T1, myo-inositol transporter (Rattus norvegicus, UniProt Q80WA5); test: [3H]myo-inositol uptake by the myo-inositol transporter in PC12 cells; assay type: cell-based; details: for block of [3H]myo-inositol uptake / Maximal Transport Rate Vmax / pKi: PC12 cells; for Maximal Transport Rate Vmax: in the presence of 1 mM analog; for pKi: uptake studies in the presence of a fixed concentration (1 mM) of analog, read-out: Affinity Constant K (Ki of the analog)
T1 construct: PC12 cells were gently detached and maintained in a suspension culture; endogenous in cells; host or cells: PC12 cells
T1 sequence (Q80WA5 1-718): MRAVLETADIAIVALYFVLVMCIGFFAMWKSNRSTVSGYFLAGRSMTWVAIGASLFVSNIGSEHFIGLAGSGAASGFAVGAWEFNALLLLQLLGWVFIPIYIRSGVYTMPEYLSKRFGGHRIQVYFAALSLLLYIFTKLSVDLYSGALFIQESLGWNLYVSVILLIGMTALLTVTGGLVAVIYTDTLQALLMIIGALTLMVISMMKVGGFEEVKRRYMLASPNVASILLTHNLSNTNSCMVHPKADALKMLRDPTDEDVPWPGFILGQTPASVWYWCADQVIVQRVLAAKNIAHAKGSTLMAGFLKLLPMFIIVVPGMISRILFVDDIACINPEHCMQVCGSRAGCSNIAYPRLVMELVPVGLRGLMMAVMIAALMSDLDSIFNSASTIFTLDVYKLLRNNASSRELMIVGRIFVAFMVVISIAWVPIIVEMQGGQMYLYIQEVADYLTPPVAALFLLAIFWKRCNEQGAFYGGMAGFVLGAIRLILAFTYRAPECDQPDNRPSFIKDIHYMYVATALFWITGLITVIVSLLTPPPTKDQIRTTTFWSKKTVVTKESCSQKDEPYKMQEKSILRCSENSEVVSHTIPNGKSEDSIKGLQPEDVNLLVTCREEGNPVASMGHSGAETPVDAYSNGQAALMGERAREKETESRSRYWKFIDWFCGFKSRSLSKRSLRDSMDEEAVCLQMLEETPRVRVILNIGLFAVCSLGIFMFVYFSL
Procedure: To determine if the effect of the fluoro-myo-inositol analogs might be mediated by the blockade of the myo-inositol transporter, which is responsible for uptake and accumulation of myo-inositol into the cell, the ability of these two compounds to block [^3 H]myo-inositol transport was studied directly.
The uptake of [^3 H]myo-inositol by the myo-inositol transporter was determined as follows:
PC12 cells were gently detached and maintained in a suspension culture in RPMI medium (both myo-inositol and serum free) at 37° C. ]^3 H]myo-inositol was added to this culture at a concentration of 1μCi/ml. Aliquots of this suspension were removed at the indicated time, diluted in 10 volumes of ice-cold PBS containing 10 mM unlabelled myo-inositol to stop the uptake process, centrifuged at 4° C. for 20 minutes at 50 xg. The cell pellet, which contained the transported [^3 H]myo-inositol, was dissolved in dilute NaOH and the radioactivity quantified by liquid scintillation counting.
The […] and Vmax of myoinositol were determined from LineweaverBurke plots
of the uptake of [^3 H]myoinositol (25 nM) in the presence of
increasing concentrations of unlabeled myoinositol in PC12 cells. The Ki
of the two fluoromyo-inositol analogs was determined by conducting the
uptake studies in the presence of a fixed concentration (1 mM) of each

PC12 cells [1] = test: Effect on cell size (protein per cell, Lowry) in PC12 cells; assay type: cell-based, rat; details: for effect on cell cycle / cell division: chronically treated PC12 cells
From the text: As cells grow in culture, the size of an individual cell varies in a fairly predictable way. The size of a cell can be expressed as the amount of protein present per cell. […] Immediately after mitosis, the cell size drops considerably, frequently to levels approximately half of the pre-mitotic level.
By investigating the size of a cell, it is possible to determine at which point within the cell cycle inhibitors of cell replication are exerting their effects. Accordingly, we investigated the effect of the 1- and 3-fluoro-myo-inositol analogs on the size of cells chronically treated with such analogs.
Cells were grown and treated with 1- and 3-fluoro-myo-inositol analogs as described in Example XIII. On the days indicated, cells were gently harvested without disruption, and the number of cells counted in triplicate in a cell counting chamber. Following determination of the number of cells per sample, the remainder of the cells were pelleted in a microcentrifuge as described hereinabove, and the protein in the sample was determined by the method of Lowry. Thus, it was possible to derive from these two data sets the amount of protein per cell, which is expressed as nanograms of protein per cell, as indicated in Table 3: […]

PC12 cells [2] = test: Uptake and incorporation of [3H]myo-inositol into PC12 cells following treatment with inositol analogs; assay type: cell-based, rat; details: for Bound [3H]myo-inositol (incorporated into membranes) / Free [3H]myo-inositol (cytoplasm): one hour [3H]myo-inositol
Procedure: Since myo-inositol must be incorporated into the cellular plasma membranes in order for it to serve its role as a second messenger, we therefore verified the ability of the 1- and 3-fluoro-myo-inositol analogs to perturb the incorporation of myo-inositol into cellular plasma membranes by the enzyme […] CDP-diacylglycerol-inositol phosphatidylytransferase (phosphatidylinositolsynthesis).
These tests were conducted by treating cells for either 1, 3, 5, or 7 days with the myo-inositol analogs, followed by a brief exposure to radiolabeled myo-inositol ([^3 H]myo-inositol). The extent of incorporation of tritiated myo-inositol would, therefore, reflect the extent to which phosphatidylinositol and its phosphorylated analogs are deficient in the cellular plasma membranes.
Cells were grown as described hereinabove. Twenty-four hours after plating, the medium was changed and cells were exposed to either inositol free medium (Control 2) or medium containing either the 1- or the 3-fluoro-myo-inositol analog. At four different time points --1, 3, 5, and 7 days--cells were tested for their ability to incorporate radiolabeled [^3 H]myo-inositol. This test was conducted by removing the medium and replacing it with RPMI medium (both myo-inositol and serum free) containing only [^3 H]myo-inositol. The cells were exposed to this medium for a period of one hour, following which they were washed three times with phosphate-buffered saline containing excess unlabeled myo-inositol (10 mM). Cells were lysed by treatment with trichloroacetic acid (TCA) and sonicated to insure complete disruption. The cellular homogenate was then collected and spun in a microfuge tube at 12,000 r.p.m. for 15 min. Samples from both the pellet and supernatant were then obtained and the levels of radioactivity in each were determined. Radioactivity in the supernatant corresponded to the amount of free [^3 H]myo-inositol in the cytoplasm of the cell, whereas the radioactivity present in the TCA-precipated pellet represented [^3 H]myo-inositol incorporated into the cellular plasma membranes.
Cells were treated for the indicated time periods with the inositol
analogs, and then exposed for one hour to [^3 H]myoinositol. Numbers
represent DPM/10^6 cells.

Row | Compound | block of [3H]myo-inositol uptake (myo-inositol transporter) | Maximal Transport Rate Vmax (myo-inositol transporter) [nmol/mg/h] | pKi (myo-inositol transporter) | effect on cell cycle / cell division (PC12 cells [1]) | Cell size (protein per cell) (PC12 cells [1]; treatment duration 1 day) [nanograms protein/cell] | Cell size (protein per cell) (PC12 cells [1]; treatment duration 3 days) [nanograms protein/cell] | Cell size (protein per cell) (PC12 cells [1]; treatment duration 5 days) [nanograms protein/cell] | Cell size (protein per cell) (PC12 cells [1]; treatment duration 7 days) [nanograms protein/cell] | Bound [3H]myo-inositol (incorporated into membranes) (PC12 cells [2]; Day 1 of treatment) [DPM/10^6 cells] | Free [3H]myo-inositol (cytoplasm) (PC12 cells [2]; Day 1 of treatment) [DPM/10^6 cells] | Bound [3H]myo-inositol (incorporated into membranes) (PC12 cells [2]; Day 3 of treatment) [DPM/10^6 cells] | Free [3H]myo-inositol (cytoplasm) (PC12 cells [2]; Day 3 of treatment) [DPM/10^6 cells] | Bound [3H]myo-inositol (incorporated into membranes) (PC12 cells [2]; Day 5 of treatment) [DPM/10^6 cells] | Free [3H]myo-inositol (cytoplasm) (PC12 cells [2]; Day 5 of treatment) [DPM/10^6 cells] | Bound [3H]myo-inositol (incorporated into membranes) (PC12 cells [2]; Day 7 of treatment) [DPM/10^6 cells] | Free [3H]myo-inositol (cytoplasm) (PC12 cells [2]; Day 7 of treatment) [DPM/10^6 cells] | also measured
1 | O[C@@H]1[C@@H](O)[C@H](O)[C@@H](F)[C@@H](O)[C@H]1O [3-deoxy-3-fluoro-myo-inositol] | did block | 2.27 | 3.60 | continued to increase steadily in size without undergoing cell division | 0.086 ± 0.01 | 0.259 ± 0.01 | 0.320 ± 0.01 | 0.343 ± 0.03 | 354 ± 10 | 3326 ± 253 | 761 ± 42 | 2929 ± 189 | 414 ± 52 | 2900 ± 383 | 676 ± 113 | 4095 ± 161 | potency in blocking myo-inositol transport relative to the 1-fluoro myo-inositol analog (myo-inositol transporter): 5.7 times; cell size relative to control cells (PC12 cells [1]; by day seven): about 3.5 times; level of radioactivity-labeled myo-inositol incorporated into the cellular plasma membranes (PC12 cells [2]): quite low
2 | O[C@@H]1[C@@H](O)[C@@H](O)[C@@H](F)[C@H](O)[C@H]1O [1-deoxy-1-fluoro-myo-inositol] | did block | 2.27 | 2.84 | arrested in a pre-mitotic state (termed late G2) | 0.082 ± 0.01 | 0.135 ± 0.01 | 0.160 ± 0.01 | 0.168 ± 0.02 | 392 ± 16 | 8365 ± 787 | 4614 ± 141 | 4751 ± 291 | 2143 ± 314 | 4295 ± 627 | 3726 ± 588 | 7569 ± 757 | affinity for the myo-inositol transporter, fold lower than the 3-fluoro-myo-inositol analog (myo-inositol transporter): 5.7 fold; cell size relative to controls (PC12 cells [1]; cells arrested in pre-mitotic state): approximately 2 fold
